Source: patent publication US10323041B2, “Bicyclic derivatives, a process for their preparation and pharmaceutical compositions containing them” (LES LABORATOIRES SERVIER, priority 2015, dated 2019)
Read-outs that look alike come from different tables or passages of the source.

Experiments:
Mcl-1 protein = Mcl-1 protein (Homo sapiens, UniProt Q07820); assay: Inhibition of Mcl-1 by the fluorescence polarisation technique; format: binding
Method in brief: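 Competitive FP with fluorescein-labelled peptide ligand, 5% DMSO, ~2 h at room temperature, 11-point curves, 4-parameter IC50. Method 1: 1 nM ligand, 5 nM Mcl-1 in HEPES pH 7.4 buffer; Method 2: 10 nM ligand, 10 nM Mcl-1 in phosphate pH 7.4 buffer, 50 μM unlabelled ligand as full-inhibition control.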

[1] = test system: H929 multiple myeloma tumour line; assay: In vitro cytotoxicity, Microculture Tetrazolium Assay on H929 cells; format: cell-based; settings: Homo sapiens, NCI-H929, exposed for 48 hours, cell viability, read-out: IC50 (M) MTT H929
Protocol: The cytotoxicity studies were carried out on the H929 multiple myeloma tumour line.
The cells are distributed onto microplates and exposed to the test compounds for 48 hours. The cell viability is then quantified by a colorimetric assay, the Microculture Tetrazolium Assay (Cancer Res., 1987, 47, 939-942).

cleaved form of PARP = assay: Quantification of the cleaved form of PARP in vivo; parameters: species or system mice (SCID strain); settings: AMO-1 xenograft in SCID mice; cleaved PARP in tumour lysates, treated / control; intraveinous or oral routes
Protocol: The ability of the compounds of the invention to induce apoptosis, by measuring cleaved PARP levels, is evaluated in a xenograft model of AMO-1 multiple myeloma cells.
1.10^7 AMO-1 cells are grafted sub-cutaneously into immunosuppressed mice (SCID strain). 12 to 14 days after the graft, the animals are treated by intraveinous or oral routes with the various compounds. After treatment, the tumour masses are recovered and lysed, and the cleaved form of PARP is quantified in the tumour lysates.
The quantification is carried out using the “Meso Scale Discovery (MSD) ELISA platform” test, which specifically assays the cleaved form of PARP. It is expressed in the form of an activation factor corresponding to the ratio between the quantity of cleaved PARP in the treated mice divided by the quantity of cleaved PARP in the control mice.

[2] = Method 1 (not underlined) or Method 2 (underlined), underlining not visible, first value where cell prints two, read-out: IC50 (M) Mcl-1 FP

Mcl-1 protein, sequence (Q07820 whole entry): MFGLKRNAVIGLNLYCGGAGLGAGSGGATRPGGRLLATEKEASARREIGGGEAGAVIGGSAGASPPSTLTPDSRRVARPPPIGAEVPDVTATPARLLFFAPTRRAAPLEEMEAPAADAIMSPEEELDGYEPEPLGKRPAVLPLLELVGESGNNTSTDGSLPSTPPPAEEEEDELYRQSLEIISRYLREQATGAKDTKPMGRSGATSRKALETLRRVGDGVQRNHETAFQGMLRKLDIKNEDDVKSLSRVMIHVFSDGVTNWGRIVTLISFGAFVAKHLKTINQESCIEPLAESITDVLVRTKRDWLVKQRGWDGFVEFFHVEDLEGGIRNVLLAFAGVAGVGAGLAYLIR

| IC50 (Mcl-1 protein; [2]) | IC50 (Mcl-1 protein; value after '/', presumably the other FP method (Method 1 / Method 2), read-out: IC50 (M) Mcl-1 FP, second value of the cell) | Structure (SMILES) | IC50 [1] | PARP fold (cleaved form of PARP) |
| --- | --- | --- | --- | --- |
| 1.55e-08 M | – | COc1ccccc1-c1nccc(COc2ccccc2C[C@@H](Oc2ncnc3c2c(-c2ccc(OCCN4CCN(C)CC4)c(Cl)c2C)c(-c2ccc(F)cc2)n3C)C(=O)O)n1 [Example 72, (2R)-2-[5-[3-chloro-2-methyl-4-[2-(4-methylpiperazin-1-yl)ethoxy]phenyl]-6-(4-fluorophenyl)-7-methyl-pyrrolo[2,3-d]pyrimidin-4-yl]oxy-3-[2-[[2-(2-methoxyphenyl)pyrimidin-4-yl]methoxy]phenyl]propanoic acid] | 3.2e-08 M | 15.7 fold |
| 1.4e-08 M | – | COc1ccccc1-c1nccc(COc2ccccc2CC(Oc2cc(F)cc3oc(-c4ccc(F)cc4)c(-c4ccc(OCCN5CCN(C)CC5)c(Cl)c4C)c23)C(=O)O)n1 [Example 67, (2R)-2-{[(3Sa)-3-{3-chloro-2-methyl-4-[2-(4-methylpiperazin-1-yl)ethoxy]phenyl}-6-fluoro-2-(4-fluorophenyl)-1-benzofuran-4-yl]oxy}-3-(2-{[2-(2-methoxyphenyl)pyrimidin-4-yl]methoxy}phenyl)propanoic acid] | 8.36e-08 M | 29.3 fold |
| 6.6e-09 M | – | COc1ccccc1-c1nccc(COc2ccccc2CC(Nc2ncnc3oc(-c4ccc(F)cc4)c(-c4ccc(OCCN5CCN(C)CC5)c(Cl)c4C)c23)C(=O)O)n1 [Example 8, N-[(5Sa)-5-{3-chloro-2-methyl-4-[2-(4-methylpiperazin-1-yl)ethoxy]phenyl}-6-(4-fluorophenyl)furo[2,3-d]pyrimidin-4-yl]-2-{[2-(2-methoxyphenyl)pyrimidin-4-yl]methoxy}-D-phenylalanine] | 1.78e-08 M | 55.4 fold |
| 2.2e-08 M | – | COc1ccccc1-c1nccc(COc2ccccc2CC(Oc2cccc3sc(-c4ccc(F)cc4)c(-c4ccc(OCCN5CCN(C)CC5)c(Cl)c4C)c23)C(=O)O)n1 (single isomer, unassigned) [Example 53] | 2.53e-08 M | 40.2 fold |
| 3.8e-09 M | – | COc1ccccc1-c1nccc(COc2ccccc2C[C@@H](Oc2ncnc3oc(-c4ccc(F)cc4)c(-c4ccc(OCCN5CCN(C)CC5)c(Cl)c4C)c23)C(=O)O)n1 [Example 1, (2R)-2-{[5-{3-chloro-2-methyl-4-[2-(4-methylpiperazin-1-yl)ethoxy]phenyl}-6-(4-fluorophenyl)furo[2,3-d]pyrimidin-4-yl]oxy}-3-(2-{[2-(2-methoxyphenyl)pyrimidin-4-yl]methoxy}phenyl)propanoic acid] | 2.41e-08 M | 157.5 fold |
| 3.6e-07 M | 5.5e-09 M | CCc1sc2cccc(OC(Cc3ccccc3)C(=O)O)c2c1-c1ccc(OCCN2CCN(C)CC2)c(Cl)c1C [Example 51, (2R)-2-[((3Sa)-3-{3-chloro-2-methyl-4-[2-(4-methylpiperazin-1-yl)ethoxy]phenyl}-2-ethyl-1-benzothiophen-4-yl)oxy]-3-phenylpropanoic acid] | 1.1e-05 M | – |
| 6e-09 M | – | CCc1c(-c2c(-c3ccc(F)cc3)oc3ncnc(O[C@H](Cc4ccccc4OCc4ccnc(-c5ccccc5OC)n4)C(=O)O)c23)ccc(OCCN2CCN(C)CC2)c1Cl [Example 2, (2R)-2-{[5-{3-chloro-2-ethyl-4-[2-(4-methylpiperazin-1-yl)ethoxy]phenyl}-6-(4-fluorophenyl)furo[2,3-d]pyrimidin-4-yl]oxy}-3-(2-{[2-(2-methoxyphenyl)pyrimidin-4-yl]methoxy}phenyl)propanoic acid] | 1.45e-08 M | 216.3 fold |
| 5.45e-09 M | – | COc1ccccc1-c1nccc(COc2ccccc2C[C@@H](Nc2ccnc3sc(-c4ccc(F)cc4)c(-c4ccc(OCCN5CCN(C)CC5)c(Cl)c4C)c23)C(=O)O)n1 [Example 84, N-[3-{3-chloro-2-methyl-4-[2-(4-methylpiperazin-1-yl)ethoxy]phenyl}-2-(4-fluorophenyl)thieno[2,3-b]pyridin-4-yl]-2-{[2-(2-methoxyphenyl)pyrimidin-4-yl]methoxy}-D-phenylalanine] | 1.09e-08 M | – |
| 1.9e-08 M | – | COc1ccccc1CC(Oc1cccc2cc(-c3ccc(F)o3)n(-c3ccc(OCCN4CCN(C)CC4)c(Cl)c3C)c12)C(=O)O [Example 60, (2R)-2-{[(1Sa)-1-{3-chloro-2-methyl-4-[2-(4-methylpiperazin-1-yl)ethoxy]phenyl}-2-(5-fluorofuran-2-yl)-1H-indol-7-yl]oxy}-3-(2-methoxyphenyl)propanoic acid] | 5.68e-07 M | – |
| 2.4e-08 M | – | COc1ccccc1-c1nccc(COc2ccccc2CC(Oc2cccc3c2c(-c2ccc(OCCN4CCN(C)CC4)c(Cl)c2C)c(-c2ccc(F)cc2)n3C)C(=O)O)n1 (single isomer, unassigned) [Example 69] | 1.04e-07 M | – |
| 3.05e-08 M | – | COc1ccccc1-c1nccc(COc2ccccc2C[C@@H](Nc2nccc3sc(-c4ccc(F)cc4)c(-c4ccc(OCCN5CCN(C)CC5)c(Cl)c4C)c23)C(=O)O)n1 [Example 86, N-[3-{3-chloro-2-methyl-4-[2-(4-methylpiperazin-1-yl)ethoxy]phenyl}-2-(4-fluorophenyl)thieno[3,2-c]pyridin-4-yl]-2-{[2-(2-methoxyphenyl)pyrimidin-4-yl]methoxy}phenylalanine] | 3.59e-08 M | – |
| 5.02e-09 M | – | COc1ccccc1-c1nccc(COc2ccccc2CC(Oc2ccnc3sc(-c4ccc(F)cc4)c(-c4ccc(OCCN5CCN(C)CC5)c(Cl)c4C)c23)C(=O)O)n1 [Example 71, (2R)-2-{[(3Sa)-3-{3-chloro-2-methyl-4-[2-(4-methylpiperazin-1-yl)ethoxy]phenyl}-2-(4-fluorophenyl)thieno[2,3-b]pyridin-4-yl]oxy}-3-(2-{[2-(2-methoxyphenyl)pyrimidin-4-yl]methoxy}phenyl)propanoic acid] | 9.08e-09 M | – |
| 1.5e-08 M | – | Cc1c(-c2c(-c3ccc(Cl)o3)oc3ncnc(O[C@H](Cc4ccccc4OCc4cnccn4)C(=O)O)c23)ccc(OCCN2CCN(C)CC2)c1Cl [Example 5, (2R)-2-{[6-(5-chlorofuran-2-yl)-5-{3-chloro-2-methyl-4-[2-(4-methylpiperazin-1-yl)ethoxy]phenyl}furo[2,3-d]pyrimidin-4-yl]oxy}-3-[2-(pyrazin-2-ylmethoxy)phenyl]propanoic acid] | 6.19e-07 M | – |
